Test results: publication PMC6629785, “Synthesis and Pharmacological Evaluation of a Novel Peptide Based on Anemonia sulcata BDS-I Toxin as a New KV3.4 Inhibitor Exerting a Neuroprotective Effect Against Amyloid-β Peptide” (Frontiers in Chemistry, 2019)
Ends that are not written are not given here.

Experiments:
caspase-3 activation = assay: Western blot of cleaved (activated) caspase-3 after Aβ1−42 exposure; format: cell-based, Rat; conditions: peptide 100 nM, 30 min pre-treatment; Aβ1−42 oligomers 5 μM, 24 h; western blot densitometry, 3 sessions
Protocol: (§1) Rat pheochromocytoma cells (PC-12 cells) were grown as previously described (Pannaccione et al., [2005], [2007]). For all the experiments, cells were seeded at low density on glass cover-slips coated with poly-L-lysine (50 μg/ml). Differentiation of PC-12 cells was achieved by treatment with neuronal growth factor (NGF) 2.5 S (50 ng/ml) for 7–9 days (Greene and Tischler, [1976]). For electrophysiological experiments, cells were seeded on glass cover-slips and used after 7–9 days of NGF. […]
NGF-differentiated PC-12 and CHO cells were washed in phosphate buffered saline (PBS) and collected by gentle scraping in ice-cold RIPA buffer containing in mM: 50 Tris pH 7.4, 100 NaCl, 1 EGTA, 1 PMSF, 1 sodium orthovanadate, 1 NaF, 0.5% NP-40, and 0.2% SDS supplemented with protease inhibitor cocktail II. […] The protein content of resulting supernatant was determined using the Bradford reagent. […]
(§2) The peptide used in our study was synthesized by INBIOS (Pozzuoli, Naples, Italy) using the Aβ1−42 sequence of human APP [UniProtKB-P05067 (A4_HUMAN)]. The purity of the peptide was assessed by high-performance liquid chromatography (>95% pure) and the amino acid composition was verified by mass spectrometry. […] The pre-aggregated preparation of Aβ oligomers was analyzed in SDS-PAGE using the rabbit monoclonal anti-Aβ on precast gels 4-20%. […]

[1] = test system: NGF-differentiated PC-12 cells; assay: Assessment of nuclear morphology with Hoechst-33258 after Aβ1−42 exposure; format: cell-based, Rat; conditions: peptide 100 nM pre-treatment; Aβ1−42 oligomers 5 μM, 24 h; Hoechst staining; 3 separate experiments, ~1,000 cells per group
Protocol: as §1
Nuclear morphology was evaluated by using the fluorescent DNA-binding dye Hoechst-33258 already described (Pannaccione et al., [2007]).
as §2
Figure 7 Effect of BDS-I[1-8] on Aβ1−42-induced abnormal nuclear morphology and caspase-3 activation in NGF-differentiated PC-12 cells. […] Values are expressed as mean±SEM of 3 independent experimental sessions. […]

| Substance | effect on Aβ1−42-induced caspase-3 activation (caspase-3 activation) | effect on abnormal nuclear morphology induced by Aβ1−42 exposure [1] |
| --- | --- | --- |
| AAPAFASG [BDS-I[1-8]] | prevented | able to significantly prevent |
| H-GSAFAPAA-OH [BDS-I[1-8scr]] | did not | – |
| blood depressing substance-I [BDS-I] | – | able to significantly prevent |
